# Values of other authors, collected in patent US20170290285A1, “HIGH REBAUDIOSIDE-C PLANT VARIETAL AND COMPOSITIONS EXTRACTED THEREFROM WITH HIGH REBAUDIOSIDE-C AND TOTAL STEVIOL GLYCOSIDE CONTENT” (GLG Life Tech Corporation, priority 2014, published 2017).
# Tests used:
# [1] = for Relative sweetness: Table 1
# [2] = heating at high temperature, cooking or barbecuing
compound,measurement,setting,value
C[C@H](CC[C@@H](O[C@@H]1O[C@H](CO[C@@H]2O[C@H](CO)[C@@H](O)[C@H](O)[C@H]2O)[C@@H](O)[C@H](O)[C@H]1O[C@@H]1O[C@H](CO)[C@@H](O)[C@H](O)[C@H]1O)C(C)(C)O)[C@H]1CC[C@@]2(C)[C@@H]3CC=C4[C@@H](CC[C@H](O[C@@H]5O[C@H](CO[C@@H]6O[C@H](CO)[C@@H](O)[C@H](O)[C@H]6O)[C@@H](O)[C@H](O)[C@H]5O)C4(C)C)[C@]3(C)[C@H](O)C[C@]12C [Mogroside V],"sweetness, times that of sugar","[1]; versus sugar, b159",about 300 times
same,effect of heating on flavor,[2],does not affect the flavor
C=C1C[C@@]23CC[C@H]4[C@@](C)(CCC[C@@]4(C)C(=O)[O-])[C@@H]2CC[C@]1(O[C@@H]1O[C@@H](CO)[C@@H](O)[C@H](O)[C@@H]1O[C@@H]1O[C@@H](CO)[C@@H](O)[C@H](O)[C@@H]1O)C3.[Na+] [Stevlolbioside],Relative sweetness,[1],90
same,"Solubility in water, %",,0.03%
Rebaudioside C,"sweetness, × of sugar","[1]; versus sugar, list b13-b15",150-200 × of sugar
Rubusoside,Relative sweetness,[1],110
